Like-named read-outs stand apart in the source and are kept apart here.
Assays:
Assay type in all cases: cell-based
LOUCY (T-ALL) = assay: CellTiter-Glo viability 72 h, single agent or 1/1 combination, LOUCY (Example 9); conditions: single agent or 1/1 combination as labelled
Experimental: (§1) Cell lines were cultured in the media described above at 37° C. in a humidified atmosphere containing 5% CO2. Cells were seeded in 96 well clear bottom plates (96 well clear-bottom, white, Corning reference 3903) and exposed to the payloads or ADCs at single agents or in 1/1 combinations with vincristine, ABT-199 or compound A2 for 72 h (serially diluted; 9 concentrations each, triplicates). Effects of payloads or ADCs on cell viability were assessed after 3 days of incubation at 37° C./5% CO2 by quantification of cellular ATP levels using CellTiter-Glo reagent (Promega Ref: G7571) at 75 μL reagent/well. All the conditions were tested in triplicates. Luminescence was quantified on a multipurpose plate reader. IC50s were calculated using standard four-parametric curve fitting. […] Each experiment was performed at least twice, with results being reproducible.

ncih211 = assay: In vitro ADC activity with combination partners, CellTiter-Glo 5 days, ncih211 (Example 13); conditions: single agent
Experimental: (§2) Antibody drug conjugates (ADCs) targeting IgG, B7H3, CD56, DLK1, DLL3, EpCAM, and SEZ6 were tested against cancer cell lines obtained from ATCC (American Type Culture Collection) or from other commercial cell line vendors (cor1279, ncih1436, ncih146, ncih211, ncih524). The cells were cultured in media that is optimal for their growth at 5% CO2, 37° C. in a tissue culture incubator. Prior to seeding for the proliferation assay, the cells were split at least 2 days before the assay to ensure optimal growth density. On the day of seeding, cells were lifted off tissue culture flasks using 0.25% trypsin. Cell viability and cell density were determined using a cell counter (Vi-Cell XR Cell Viability Analyzer, Beckman Coulter). Cells with higher than 85% viability were seeded in white clear bottom 384-well plates (Greiner cat #781098) at a density of 1000 cells per well in 50 μL of standard growth media. Plates were incubated at 37° C. overnight in a tissue culture incubator.
(§3) The ADCs were prepared in standard phosphate buffered solution to desired concentrations. A series of 10 dilutions were made for each ADC. The prepared drug treatments were then added to the cells resulting in final concentrations of 300 nM to 0.015 nM. Combination partners (Venetoclax and Topotecan) were added at fixed concentrations. Acoustic transfer devices (Echo525, Echo550, Beckman Coulter) were used to add the ADCs or combination partners to the cells. Each treatment was tested in triplicate assay plates. Plates were incubated at 37° C. overnight or for 5 days in a tissue culture incubator. The ability of the ADCs to inhibit cell proliferation and survival was assessed using the Promega CellTiter-Glo® proliferation assay. Plates were incubated at room temperature for 20 minutes to stabilize luminescent signals prior to reading using a multimode plate reader (Pherastar, BMG). Luminescent counts of untreated cells were taken the day after seeding (Day 0 readings), and after 5 days of treatment (Day 5 readings). The Day 5 readings of the untreated cells were compared to the Day 0 readings. Assays with at least one cell doubling during the incubation period were considered valid. To evaluate the effect of the drug treatments, luminescent counts from wells containing untreated cells (100% viability) were used to normalize treated samples. The concentrations of treatment required to inhibit 50% of cell growth or survival ([…]) were calculated using a four parameter logistic regression equation.

SUDHL8 (DLBCL) = assay: CellTiter-Glo viability 72 h, single agent or 1/1 combination, SUDHL8 (Example 9); conditions: Homo sapiens, SU-DHL-8, single agent or 1/1 combination as labelled
Experimental: as §1

MM1S (MM) = assay: CellTiter-Glo viability 72 h, single agent or 1/1 combination, MM1S (Example 9); conditions: Homo sapiens, MM1.S, single agent or 1/1 combination as labelled
Experimental: as §1

DND-41 cells = assay: CellTiterGlo (CTG) cell viability, 72 h, DND-41 (Example 8)
How it was run: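 DND-41 cells in RPMI with 10% heat-inactivated FBS exposed to payloads or ADCs for 3 days at 37° C/5% CO2, in triplicate. Viability measured as cellular ATP by CellTiterGlo luminescence; IC50 from four-parameter fit.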

HPB-ALL (T-ALL) = assay: CellTiter-Glo viability 72 h, single agent or 1/1 combination with vincristine, ABT-199 or Compound A2, HPB-ALL (Example 9); conditions: Homo sapiens, HPBALL, single agent or 1/1 combination as labelled
Experimental: as §1

ALL-SILL (T-ALL) = assay: CellTiter-Glo viability 72 h, single agent or 1/1 combination, ALL-SIL (Example 9); conditions: single agent or 1/1 combination as labelled
How it was run: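 ALL-SIL cells were incubated with payloads or ADCs, alone or in 1/1 combination, for 3 days at 37° C/5% CO2. Viability was read as cellular ATP by CellTiter-Glo luminescence, in triplicate. IC50s came from four-parameter curve fitting.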

ncih524 = assay: In vitro ADC activity with combination partners, CellTiter-Glo 5 days, ncih524 (Example 13); conditions: single agent
Experimental: as §2, §3

ncih1436 = assay: In vitro ADC activity with combination partners, CellTiter-Glo 5 days, ncih1436 (Example 13); conditions: single agent
Experimental: as §2, §3

IC50 (SUDHL8 (DLBCL); mean, read-out: SUDHL8 (DLBCL) IC50 mean): 0.24 nM
IC50 (SUDHL8 (DLBCL); n1, read-out: SUDHL8 (DLBCL) IC50 n1): 0.34 nM
IC50 (SUDHL8 (DLBCL); n2, read-out: SUDHL8 (DLBCL) IC50 n2): 0.14 nM
IC50 (MM1S (MM); mean, read-out: MM1S (MM) IC50 mean): 17.4 nM
IC50 (MM1S (MM); n1, read-out: MM1S (MM) IC50 n1): 10.4 nM
IC50 (MM1S (MM); n2, read-out: MM1S (MM) IC50 n2): 24.3 nM
SMILES: Cc1c(Nc2nc3ccccc3s2)nnc2c1CCCN2c1ccc(-c2cnn(C[C@]34C[C@]5(C)C[C@](C)(C3)C[C@@](OCCN3CCCC3)(C5)C4)c2C)c(C(=O)O)n1 [P21, 6-[3-(1,3-benzothiazol-2-ylamino)-4-methyl-6,7-dihydro-5H-pyrido[2,3-c]pyridazin-8-yl]-3-[1-[[3,5-dimethyl-7-(2-pyrrolidin-1-ylethoxy)-1-adamantyl]methyl]-5-methyl-pyrazol-4-yl]pyridine-2-carboxylic acid]
IC50 (LOUCY (T-ALL); mean, read-out: LOUCY (T-ALL) IC50 mean): 0.73 nM
IC50 (LOUCY (T-ALL); n1, read-out: LOUCY (T-ALL) IC50 n1): 0.73 nM
GI50 (ncih211; Homo sapiens, NCI-H211, 120 h): 0.000508 µM
GI Amax ncih211 (ncih211): −97.26
IC50 (DND-41 cells; DND41, experiment n1, read-out: DND41 CTG 72 h IC50 nM n1): 0.31 nM
IC50 (DND-41 cells; DND41, experiment n2, read-out: DND41 CTG 72 h IC50 nM n2): 0.2 nM
IC50 (DND-41 cells; DND41, mean of n1 and n2, read-out: DND41 CTG 72 h IC50 nM Mean of n1 and n2): 0.26 nM
IC50 (HPB-ALL (T-ALL); mean, read-out: HPB-ALL (T-ALL) IC50 mean): 1.01 nM
IC50 (HPB-ALL (T-ALL); n1, read-out: HPB-ALL (T-ALL) IC50 n1): 1.33 nM
IC50 (HPB-ALL (T-ALL); n2, read-out: HPB-ALL (T-ALL) IC50 n2): 0.69 nM
IC50 (ALL-SILL (T-ALL); mean, read-out: ALL-SILL (T-ALL) IC50 mean): 0.63 nM
IC50 (ALL-SILL (T-ALL); n1, read-out: ALL-SILL (T-ALL) IC50 n1): 0.4 nM
IC50 (ALL-SILL (T-ALL); n2, read-out: ALL-SILL (T-ALL) IC50 n2): 0.86 nM
GI50 (ncih524; Homo sapiens, NCI-H524, 120 h): 0.000508 µM
GI Amax ncih524 (ncih524): −97.52
GI50 (ncih1436; Homo sapiens, NCI-H1436, 120 h): 0.000508 µM
GI Amax ncih1436 (ncih1436): −94.5

Reference: patent publication US20240269304A1, “BCL-XL INHIBITOR ANTIBODY-DRUG CONJUGATES AND METHODS OF USE THEREOF” (Novartis AG, priority 2020, published 2024)
